The numbers were not newly measured in patent publication US5393873A, “Peptides with anticoagulant activity” (BASF Aktiengesellschaft, priority 1991, dated 1995), which cites them from elsewhere.

The target in this data set is thrombin (Homo sapiens, UniProt P00734).

As to “Val-Val-Tyr-Thr-Asp-Cys-Thr-Glu-Ser-Gly-Gln-Asn-Leu-Cys-Leu-Cys-Glu-Gly-Ser-Asn-Val-Cys-Gly-Gln-Gly-Asn-Lys-Cys-Ile-Leu-Gly-Ser-Asp-Gly-Glu-Lys-Asn-Gly-Cys-Val-Thr-Gly-Glu-Gly-Thr-Pro-Lys-Pro-Gln-Ser-His-Asn-Asp-Gly-Asp-Phe-Glu-Glu-Ile-Pro-Glu-Glu-Tyr(SO3 H)-Leu-Gln [Hirudin]”, the binding to thrombin result was “very strongly”.
